Activity calls are given as the source filed them. The calls are words filed in the database; no cut-off is given here.
Legend:
[1] = biological target: T1, Nucleotide-binding oligomerization domain-containing protein 1 (Homo sapiens) (UniProt Q9Y239); experiment: Agonist activity at NOD1 receptor (unknown origin) expressed in HEK-Blue cells assessed as NF-kappaB transcriptional activity at 20 uM after 18 hrs by secreted embryonic alkaline phosphatase reporter gene assay; format: cell-based
T1 sequence (whole entry): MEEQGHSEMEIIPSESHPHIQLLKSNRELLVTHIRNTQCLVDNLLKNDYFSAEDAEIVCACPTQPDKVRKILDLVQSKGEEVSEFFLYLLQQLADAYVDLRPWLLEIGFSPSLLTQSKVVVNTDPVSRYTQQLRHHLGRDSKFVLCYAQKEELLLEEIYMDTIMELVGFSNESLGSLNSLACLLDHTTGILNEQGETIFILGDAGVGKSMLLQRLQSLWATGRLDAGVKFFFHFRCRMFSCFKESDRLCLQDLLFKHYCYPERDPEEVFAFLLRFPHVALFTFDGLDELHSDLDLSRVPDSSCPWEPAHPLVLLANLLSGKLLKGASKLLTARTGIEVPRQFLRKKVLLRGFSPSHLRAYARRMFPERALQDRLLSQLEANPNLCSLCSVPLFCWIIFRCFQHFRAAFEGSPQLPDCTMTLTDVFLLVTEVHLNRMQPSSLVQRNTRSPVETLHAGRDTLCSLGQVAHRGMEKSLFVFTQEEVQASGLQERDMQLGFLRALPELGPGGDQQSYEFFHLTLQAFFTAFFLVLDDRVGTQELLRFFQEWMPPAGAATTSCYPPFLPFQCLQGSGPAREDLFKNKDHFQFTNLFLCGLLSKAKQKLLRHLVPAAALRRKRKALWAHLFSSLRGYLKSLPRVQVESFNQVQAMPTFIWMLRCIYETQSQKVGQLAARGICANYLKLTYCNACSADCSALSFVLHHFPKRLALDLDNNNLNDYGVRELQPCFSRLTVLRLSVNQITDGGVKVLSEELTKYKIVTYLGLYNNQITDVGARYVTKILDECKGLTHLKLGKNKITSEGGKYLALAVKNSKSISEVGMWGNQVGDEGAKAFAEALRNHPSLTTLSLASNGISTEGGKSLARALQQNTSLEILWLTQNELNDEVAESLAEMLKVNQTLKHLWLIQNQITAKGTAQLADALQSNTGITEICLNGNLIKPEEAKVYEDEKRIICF

[2] = biological target: T2, Nucleotide-binding oligomerization domain-containing protein 2 (Homo sapiens, UniProt Q9HC29); experiment: Agonist activity at NOD2 receptor (unknown origin) expressed in HEK-Blue cells assessed as NF-kappaB transcriptional activity at 20 uM after 18 hrs by secreted embryonic alkaline phosphatase reporter gene assay relative to untreated control; format: cell-based
[3] = Cytotoxicity against NOD2 expressing HEK-Blue cells assessed as residual metabolic activity at 20 uM after 18 hrs by MTS assay relative to control; format: ADME, cell-based; conditions: human, read-out: Activity
[4] = biological target: T2, Nucleotide-binding oligomerization domain-containing protein 2; experiment: Agonist activity at NOD2 receptor (unknown origin) expressed in HEK-Blue cells assessed as NF-kappaB transcriptional activity after 18 hrs by secreted embryonic alkaline phosphatase reporter gene assay; format: cell-based

T2 sequence (Q9HC29 whole entry, the tested form may be a part): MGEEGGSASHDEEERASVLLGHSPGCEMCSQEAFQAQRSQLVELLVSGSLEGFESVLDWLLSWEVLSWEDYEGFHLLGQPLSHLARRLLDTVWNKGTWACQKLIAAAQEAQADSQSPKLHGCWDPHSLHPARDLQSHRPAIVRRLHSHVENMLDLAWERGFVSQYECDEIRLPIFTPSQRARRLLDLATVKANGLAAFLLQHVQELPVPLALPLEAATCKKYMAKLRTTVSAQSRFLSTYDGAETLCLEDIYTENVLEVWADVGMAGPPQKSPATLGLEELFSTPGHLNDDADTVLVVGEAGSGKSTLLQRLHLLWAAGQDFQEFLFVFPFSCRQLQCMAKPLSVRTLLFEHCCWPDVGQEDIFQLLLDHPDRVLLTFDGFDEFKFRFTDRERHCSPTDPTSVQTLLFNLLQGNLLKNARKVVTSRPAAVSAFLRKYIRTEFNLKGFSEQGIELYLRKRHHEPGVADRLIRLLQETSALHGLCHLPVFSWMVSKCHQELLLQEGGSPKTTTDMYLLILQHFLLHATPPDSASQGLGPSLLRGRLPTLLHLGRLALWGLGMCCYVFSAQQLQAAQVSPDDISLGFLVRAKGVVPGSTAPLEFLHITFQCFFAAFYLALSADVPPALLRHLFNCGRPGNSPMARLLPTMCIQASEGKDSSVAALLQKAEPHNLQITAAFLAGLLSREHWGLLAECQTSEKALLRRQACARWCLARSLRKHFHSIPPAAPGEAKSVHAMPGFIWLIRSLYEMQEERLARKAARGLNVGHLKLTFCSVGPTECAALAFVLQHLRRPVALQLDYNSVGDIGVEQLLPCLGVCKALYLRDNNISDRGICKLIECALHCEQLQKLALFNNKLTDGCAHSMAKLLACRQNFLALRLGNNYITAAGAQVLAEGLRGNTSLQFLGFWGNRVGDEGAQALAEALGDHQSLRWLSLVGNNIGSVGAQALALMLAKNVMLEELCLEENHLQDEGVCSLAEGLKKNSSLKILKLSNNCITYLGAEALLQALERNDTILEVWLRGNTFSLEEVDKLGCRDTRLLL

SMILES | Activity [1] | fold change (FC) [2] | viability at 18 h, 20 µM [3] [%] | Activity [4] | EC50 [4] [µM] | Activity [2]
CCOC(=O)CC[C@@H](NC(=O)[C@H](C)NC(=O)CNC(=O)c1cc2ccccc2[nH]1)C(=O)OCC | inactive | 5.2 | – | – | – | –
CCOC(=O)CC[C@@H](NC(=O)[C@H](C)NC(=O)CNC(=O)/C=C/c1ccccc1)C(=O)OCC | inactive | 7.37 | ≥ 80 | – | – | –
CCOC(=O)CC[C@@H](NC(=O)[C@H](C)NC(=O)CNC(=O)c1cc2ccccc2n1C)C(=O)OCC | inactive | 2.14 | ≥ 80 | – | – | –
CCOC(=O)CC[C@@H](NC(=O)[C@H](C)NC(=O)CNC(=O)c1cc2c(-c3ccccc3)cccc2[nH]1)C(=O)OCC | inactive | 2.95 | ≥ 80 | – | – | –
CCOC(=O)CC[C@@H](NC(=O)[C@H](C)NC(=O)CCNC(=O)c1cc2ccccc2[nH]1)C(=O)OCC | inactive | 1.41 | ≥ 80 | – | – | –
CCOC(=O)CC[C@@H](NC(=O)[C@H](C)NC(=O)CNC(=O)C1Cc2ccccc2N1)C(=O)OCC (some centres not stated) | inactive | 3.17 | ≥ 80 | – | – | –
CCOC(=O)CC[C@@H](NC(=O)[C@H](C)NC(=O)CNC(=O)c1cc2ccccc2n1Cc1ccc(F)cc1)C(=O)OCC | inactive | 2.8 | ≥ 80 | – | – | –
CC(=O)N[C@H]1C(O)O[C@H](CO)[C@@H](O)[C@@H]1O[C@H](C)C(=O)N[C@@H](C)C(=O)N[C@H](CCC(=O)O)C(N)=O (some centres not stated) [MURAMYL DIPEPTIDE] | inactive | 11.5 | – | Dose-dependent effect | 0.046 | –
CCOC(=O)CC[C@@H](NC(=O)[C@H](C)NC(=O)CNC(=O)c1c[nH]c2ccccc12)C(=O)OCC | inactive | 1.22 | ≥ 80 | – | – | –
CCOC(=O)CC[C@@H](NC(=O)[C@H](C)NC(=O)CNC(=O)c1cc2cc(Br)ccc2[nH]1)C(=O)OCC | inactive | 4.58 | ≥ 80 | – | – | –
CCOC(=O)CC[C@@H](NC(=O)[C@H](C)NC(=O)CNC(=O)c1cc2cccc(-c3ccccc3)c2[nH]1)C(=O)OCC | inactive | 6.51 | ≥ 80 | – | – | –
C[C@H](NC(=O)CNC(=O)c1cc2ccccc2[nH]1)C(=O)N[C@H](CCC(=O)OCc1ccccc1)C(=O)OCc1ccccc1 | inactive | 8.82 | ≥ 80 | – | – | –
CCOC(=O)CC[C@@H](NC(=O)[C@H](C)NC(=O)CNC(=O)c1cc2ccc(-c3ccccc3)cc2[nH]1)C(=O)OCC | inactive | 11.2 | ≥ 80 | Dose-dependent effect | 2.88 | –
CCOC(=O)CC[C@@H](NC(=O)[C@H](C)NC(=O)CNC(=O)c1cc2cc(-c3ccccc3)ccc2[nH]1)C(=O)OCC | inactive | 10.4 | ≥ 80 | – | – | –
CCOC(=O)CC[C@@H](NC(=O)[C@H](C)NC(=O)CNC(=O)c1ccc[nH]1)C(=O)OCC | inactive | 1.08 | ≥ 80 | – | – | –
CCOC(=O)CC[C@@H](NC(=O)[C@H](C)NC(=O)CNC(=O)C1Cc2ccccc2N1C(=O)OC(C)(C)C)C(=O)OCC (some centres not stated) | inactive | 2.58 | ≥ 80 | – | – | –
CCOC(=O)CC[C@@H](NC(=O)[C@H](C)NC(=O)CNC(=O)c1cc2cc(F)ccc2[nH]1)C(=O)OCC | inactive | 3.02 | ≥ 80 | – | – | –
C[C@H](NC(=O)CNC(=O)c1cc2ccccc2[nH]1)C(=O)N[C@H](CCC(=O)O)C(=O)O | inactive | 2.1 | ≥ 80 | – | – | –
CCOC(=O)CC[C@@H](NC(=O)[C@H](C)NC(=O)CNC(=O)C(=O)Nc1ccccc1)C(=O)OCC | inactive | 1.15 | ≥ 80 | – | – | –
Cc1nc(CC[C@@H](NC(=O)[C@H](C)NC(=O)CNC(=O)c2cc3ccccc3[nH]2)c2noc(C)n2)no1 | inactive | – | ≥ 80 | – | – | inactive

Reference: ChEMBL document CHEMBL3797113, “Structural requirements of acylated Gly-l-Ala-d-Glu analogs for activation of the innate immune receptor NOD2” (Eur J Med Chem, 2016)
